Series [1] is described as follows: Oral tolerance (calcemic liability) by body weight in hairless mice. The arrangement: species or system hairless mice (Moro hr/hr). Particulars: mouse, in vivo, oral gavage in arachis oil, daily for 4 days, read-out: HTDp.o. (highest tolerated oral dose without weight loss). The method, then: (§1) Orally administered vitamin D analogues can lead to epidermal thickening (acanthosis) in hairless mice. […] Compounds of formula I were tested for 4 days at different dosages in order to detect compounds which show this epidermal effect at subtoxic and non-toxic doses (dosage leading to slight or no weight loss). […] The calcitriol data were obtained from animals treated for three days.
(§2) Hairless mice (Moro hr/hr) received daily administrations of the test compound in arachis oil by gavage for 4 days, using 2-5 different dosages (3 fold increments; 2 animals per dosage group). The mice were sacrificed at day 5 and skin biopsies were taken, fixed in formalin and treated for histological evaluation. The epidermal thickness was measured at standard magnification using an occular grid. Daily measurements of body weight allows to judge toxicity (calcemic liability) and determine the non-toxic dose level defined as the dose which is tolerated without weight loss.
HTDp.o.: highest tolerated oral dose (μg/kg) without weight loss

The subject of series [2] is normal mouse skin. Briefly: Activity assay hyperproliferative disorders: epidermal thickening (acanthosis) in hairless mice, oral. Type of series: in vivo, hairless mice (Moro hr/hr). Particulars: for ED50: Mus musculus, read-out: ED50 (dose causing halfmaximal epidermal thickening). The method, then:
Activity Assay Hyperproliferative Disorders
as §1, §2
ED50 : dose (μg/kg) causing halfmaximal epidermal thickening
TI shift: shift in "therapeutic index", is defined as ratio ED50 /HT
for calcitriol divided by the ratio ED50 /HTP for the test compound

Series [3] concerns normal mouse skin. Particulars: known antipsoriatics; cited from earlier work.
[4] abbreviates: 96 h, oral gavage in arachis oil, daily for 4 days.

Where two headings read alike, the source gives them in different places.

As usually defined, the ED50 is the dose at which the effect has come halfway, by size or by number of responders.

For `CC(C#Cc1ccccc1C(C)(C)O)[C@H]1CC[C@H]2/C(=C/C=C3C[C@@H](O)C[C@H](O)C3)CCC[C@]12C` (stereo partly drawn) [Example 6, (7E)-(1R,3R)-23-[2-(1-Hydroxy-1-methyl-ethyl)-phenyl]-19,24-dinor-9,10-seco-chola-5,7-dien-22-yne-1,3-diol], the MTD in series [1] was 0.04 mg/kg. Also, the ED50 in the series with normal mouse skin [2] (setting [4]) is 2.5 mg/kg. Also, the “ratio ED50/HTD” value with normal mouse skin [2] (oral, 4 days) was found to be 63.

Take `C=C1/C(=C\C=C2/CCC[C@]3(C)[C@@H]([C@@H](C)C#Cc4cccc(C(C)(C)O)c4)CC[C@@H]23)C[C@@H](O)C[C@@H]1O` [Example 14, (5Z,7E)-(1S,3R,20R)-23-[3-(1-Hydroxy-1-methyl-ethyl)-phenyl)-24-nor-9,10seco-chola-5,7,10(19)-trien-22-yne-1,3-diol]: in series [1], the MTD is 1 mg/kg. Moreover, the ED50 in the series with normal mouse skin [2] (setting [4]) amounted to 7 mg/kg. Moreover, in the series on normal mouse skin [2] (oral, 4 days), the “ratio ED50/HTD” value is given as 7.

Consider `C=C1/C(=C\C=C2/CCC[C@]3(C)[C@@H]([C@@H](C)C#Cc4ccccc4C(C)(C)O)CC[C@@H]23)C[C@@H](O)C[C@@H]1O` [Example 16, (5Z,7E)-(1S,3R,20R)-23-[2-(1-Hydroxy-1-methyl-ethyl)-phenyl)-24-nor-9,10-seco-chola-5,7,10(19)-trien-22-yne-1,3-diol], for which, in series [1], the MTD was 2 mg/kg. In addition, the ED50 with normal mouse skin [2] (setting [4]) is 10 mg/kg. The “ratio ED50/HTD” value in the series on normal mouse skin [2] (oral, 4 days) is recorded as 5.

On to `C=C1/C(=C\C=C2/CCC[C@]3(C)[C@@H]([C@H](C)CCCC(C)(C)O)CC[C@@H]23)C[C@@H](O)C[C@@H]1O` [calcitriol, 1,25-dihydroxycholecalciferol, reference compound], for which, in the series on normal mouse skin [3], the “epidermal thickening effect on normal mouse skin, in words” value is “show this effect on normal mouse skin”. The “skin effect (epidermal thickening) on 4 days dosing, in words” value with normal mouse skin [2] (4 days) is “could not be dosed for 4 days high enough to obtain this skin effect”. The ED50 in the series with normal mouse skin [2] (72 h, oral, calcitriol treated for three days) was 0.5 mg/kg. Moreover, the “ratio ED50/HTD” value in the series with normal mouse skin [2] (oral, calcitriol treated for three days) turned out to be 500.
